[Ψ] = pseudouridine; d = 2'-deoxy (DNA); r = 2'-OH (RNA)
How the values were obtained:
[1] = Toxicity of LNP-siTOP1 and irinotecan on HCT116 cells (CCK-8 cell viability); type: cell-based, human; conditions: human, HCT116 colon cancer cells, HCT116, 72 h
Method: (§1) After 72 h of transfection, 10 μL of CCK-8 solution was added to each well, and the cells were cultured in the incubator with 5% CO2 at 37° C. for another 4 h. The absorbance value at 450 nm was measured using a microplate reader. Cell viability was calculated according to the following formula: […]
(§2) On the day before transfection, HCT116 human colon cancer cells were seeded into a 96-well cell culture plate at 5000 cells/well, the culture medium being IMDM containing 10% FBS and 1% Penicillin-Streptomycin, and after plating, the cell culture plate was placed in an incubator with 5% CO2 at 37° C. for 24 h to allow the cells to adhere to the wall. 3 replicate wells were made for each group. On the day of transfection, the culture medium was changed to an IMDM culture medium without antibiotics (containing 10% FBS). LNP-siTOP1-1604 diluted with Opti-MEM culture medium was added, and the working concentrations of the siRNA were 500, 200, 100, 50, 20, and 5 nM. The control groups were Blank (Opti-MEM at the equal volume) and the positive control drug, irinotecan, at concentrations of 500, 200, 100, 50, 20, 5, and 1 μM. The cell culture plate was placed in the incubator with 5% CO2 at 37° C., and the cells were cultured for another 72 h. The cell viability was detected according to the method in Example 3 (Table 10). Fitting was performed using Graphpad software.

[2] = test system: HCT116 human colon cancer cells; test: as above; type: cell-based; conditions: Homo sapiens, HCT-116; HCT116, 72 h, CCK-8
Method: as §1, §2

TOP1 mRNA = test: Inhibitory effects of modified sequences of siTOP1-1604 on TOP1 mRNA in PC-3 cells; type: cell-based, human; conditions: PC-3, siRNA 50 nM
Method: PC-3 human prostate cancer cells were transfected with the modified siTOP1 according to the method in Example 2 at a siRNA working concentration of 50 nM. TOP1 mRNA levels were detected 48 h after the transfection. The control groups were Blank (Opti-MEM at the equal volume), Lipofectamine™ RNAiMAX (Lipo) transfection reagent, and the positive control unmodified siTOP-1604.

Molecule	viability at 72 h, 1 µM ([1]; 1 μM)	viability at 72 h, 5 µM ([1]; 5 μM)	viability at 72 h, 20 µM ([1]; 20 μM)	viability at 72 h, 50 µM ([1]; 50 μM)	viability at 72 h, 100 µM ([1]; 100 μM)	viability at 72 h, 200 µM ([1]; 200 μM)	viability at 72 h, 500 µM ([1]; 500 μM)	IC50 [2]	Expression of TOP1 mRNA inhibited to (TOP1 mRNA; 48 h, compared to the control groups)	Relative expression level, mean value (TOP1 mRNA; 48 h after transfection, Blank = 100.00)
CCc1c2c(nc3ccc(OC(=O)N4CCC(N5CCCCC5)CC4)cc13)-c1cc3c(c(=O)n1C2)COC(=O)[C@]3(O)CC [Irinotecan]	109%	55.4%	31.8%	16.9%	9.69%	8.18%	11.9%	9.33 µM		
siTOP1-1604-m4: Pseudouridine-modified siTOP1-1604; sense strand SEQ ID NO: 55, antisense strand SEQ ID NO: 56 (sense GUGUGGACAAGAUCCGGAATT; antisense UUCCGGAUCUUGUCCACACTT; sense: sugars from the 5' end r19 d2, [Ψ] at 2, 4, 13, backbone not given here; antisense: sugars from the 5' end r19 d2, [Ψ] at 1, 2, 8, 10, 11, 13, backbone not given here)									4.3%	4.30
